Counter-ions that a name gives are not always drawn. Like-named read-outs stand apart in the source and are kept apart here.
Legend:
[1] = tested on: BRA (mesoderm marker) in RUES2-GLR cells; test: DevTox GLR-Endo assay: increase in percent BRA-positive cells (AEID 3096, Bra_up); format: cell-based, human; conditions: for HIT−CALL: tcpl plot AEID3096, COFF 0.774; for MAX_MEAN: tcpl plot AEID3096, maximum mean response; for MAX_MED: tcpl plot AEID3096, maximum median response
Experimental: (§1) The total test chemical incubation period was 48 h.
(§2) (Supplementary Materials).

[2] = tested on: SOX2 (ectoderm and pluripotency marker) in RUES2-GLR cells; test: DevTox GLR-Endo assay: increase in percent SOX2-positive cells (AEID 3095, Sox2_up); conditions: for MAX_MEAN: tcpl plot AEID3095, maximum mean response; for MAX_MED: tcpl plot AEID3095, maximum median response
[3] = cited from earlier work; for Development Toxicant Classification: Table S2; for Classification: developmental toxicant classification (Teratogen / Non-Teratogen) of reference and training chemicals, ref DOI per chemical: 10.1093/toxsci/kft239, 10.1093/toxsci/kfaa014, 10.1177/026119290203000204, 10.1038/s41598-020-59542-x; for DT Class.: developmental toxicant classification, chemicals common with hPST
in vitro = conditions: human
RUES2-GLR cells = test: DevTox GLR-Endo assay: decrease in total cell count, cytotoxicity (AEID 3098, CellCount_dn); conditions: for Emax: Homo sapiens, read-out: Cell Count % Max Inhibition
H9 human ESC line = conditions: cited from earlier work
[4] = tested on: SOX17 (endoderm marker) in RUES2-GLR cells; test: DevTox GLR-Endo assay: increase in percent SOX17-positive cells (AEID 3093, Sox17_up); format: cell-based, human; conditions: for Emax: Homo sapiens; for HIT−CALL: tcpl plot AEID3093, COFF 20.3
Experimental: as §1, §2

[5] = tested on: SOX17 (endoderm marker) in RUES2-GLR cells; test: DevTox GLR-Endo assay: decrease in percent SOX17-positive cells (AEID 3094, Sox17_dn); conditions: for Hit Call: Table S2, SOX17-positive cells, cutoff 3*bmad; for HIT−CALL: tcpl plot AEID3094, COFF 20.3; for hit call designation (in words): DevTox GLR-Endo prediction against developmental toxicant classification; for DevTox ACC: Table S2, percent SOX17-positive cells
Procedure, shortened: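 RUES2-GLR cells under endoderm differentiation exposed to test chemicals for 48 h in total, with 0.2% DMSO solvent control and SB431542 (1 µM) as developmental-toxicant control. Endpoints: decrease in total cell count and in percent SOX17-positive cells; n = 4 biological replicates minimum.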

[6] = tested on: SOX17 in H9 human ESC line; conditions: SOX17 half-maximal inhibition concentration; read-out: hPST IC50; cited from earlier work
[7] = cytotoxicity half-maximal concentration
[8] = tcpl plot AEID3093, maximum mean response, read-out: MAX_MEAN
[9] = tcpl plot AEID3093, maximum median response, read-out: MAX_MED
[10] = Homo sapiens, 48 h, read-out: DevTox-GLR Endo AC50 (µM), SOX17 half-maximal activity concentration, 48 h exposure
[11] = Homo sapiens, read-out: DevTox % Max Inhibition
[12] = Homo sapiens, read-out: MAX_MEAN
[13] = Homo sapiens, read-out: MAX_MED
[14] = RUES2-GLR cells under directed endoderm differentiation
[15] = Homo sapiens, read-out: ga (winning model), tcpl plot AEID3094, gain parameter of winning curve fit (log concentration, µM axis), hit calls only (converted)
[16] = Homo sapiens, read-out: tp (winning model)
[17] = read-out: DevTox-GLR Endo AC50, SOX17 half-maximal activity concentration, 48 h exposure

O=C(O)c1cccnc1 [Niacin, Nicotinic acid]
HIT−CALL [1]: 0
MAX_MEAN [1]: 0.818 Percent Activity
MAX_MED [1]: 0.865 Percent Activity
MAX_MEAN [2]: 0.611 Percent Activity
MAX_MED [2]: 0.561 Percent Activity
Development Toxicant Classification [3]: Negative
Classification [3]: Non-Teratogen
DT Class. [3]: Neg
CC50 at 48 h (in vitro): > 200 µM
Emax (RUES2-GLR cells): 10.8%
Cell Count ACC (RUES2-GLR cells; human, 48 h): >200 µM
hPST TC50 (H9 human ESC line; [7]): >200 µM
hPST TC50 (H9 human ESC line; hPST cytotoxicity): > 200 µM
Emax [4, 8]: 11.3%
Emax [4, 9]: 11.4%
HIT−CALL [4]: 0
AC50 [5, 10]: > 200 µM
Emax [5, 11]: 6.06%
Emax [5, 12]: 5.21%
Emax [5, 13]: 6.06%
Hit Call [5]: Negative
HIT−CALL [5]: 0
IC50 [6]: > 200 µM

C[C@](N)(Cc1ccc(O)c(O)c1)C(=O)O [Methyldopa]
HIT−CALL [1]: 0
MAX_MEAN [1]: 0.823 Percent Activity
MAX_MED [1]: 0.851 Percent Activity
MAX_MEAN [2]: 4.03 Percent Activity
MAX_MED [2]: 0.534 Percent Activity
Development Toxicant Classification [3]: Negative
Classification [3]: Non-Teratogen
DT Class. [3]: Neg
CC50 at 48 h (in vitro; [14]): > 200 µM
Emax (RUES2-GLR cells): 10.2%
Cell Count ACC (RUES2-GLR cells; human, 48 h): >200 µM
hPST TC50 (H9 human ESC line; [7]): 462 µM
hPST TC50 (H9 human ESC line; hPST cytotoxicity): 462 µM
Emax [4, 8]: 13.8%
Emax [4, 9]: 12.9%
HIT−CALL [4]: 0
hit call designation (in words) [5]: false positive
AC50 [5, 10]: 113 µM
Emax [5, 11]: 23.5%
Emax [5, 12]: 19.9%
Emax [5, 13]: 23.5%
AC50 [5, 15]: 112 µM
Emax [5, 16]: 30.9%
Hit Call [5]: Positive
DevTox ACC ([5]; 48 h exposure): 217.84 µM
AC50 [5, 17]: 113 µM
HIT−CALL [5]: 1
IC50 [6]: 272 µM

[H]/N=C(/NCCCCC)N/N=C/c1c[nH]c2ccc(OC)cc12 [Tegaserod Maleate]
HIT−CALL [1]: 1
MAX_MEAN [1]: 3.57 Percent Activity
MAX_MED [1]: 2.57 Percent Activity
MAX_MEAN [2]: 2.78 Percent Activity
MAX_MED [2]: 2.79 Percent Activity
Development Toxicant Classification [3]: Negative
Classification [3]: Non-Teratogen
DT Class. [3]: Neg
CC50 at 48 h (in vitro; [14]): 5.06 µM
Emax (RUES2-GLR cells): 98.8%
Cell Count ACC (RUES2-GLR cells; Table S2, 48 h exposure): 4.239 µM
hPST TC50 (H9 human ESC line; [7]): 4.5 µM
hPST TC50 (H9 human ESC line; hPST cytotoxicity): 4.5 µM
Emax [4, 8]: 6.89%
Emax [4, 9]: 6.94%
HIT−CALL [4]: 0
hit call designation (in words) [5]: false positive
AC50 [5, 10]: 5.32 µM
Emax [5, 11]: 102%
Emax [5, 12]: 102%
Emax [5, 13]: 102%
AC50 [5, 15]: 5.32 µM
Emax ([5]; Homo sapiens, read-out: maximum observed effect level class (% max inhibition)): 80 to 100%
Emax [5, 16]: 102%
Hit Call [5]: Positive
DevTox ACC ([5]; 48 h exposure): 4.472 µM
HIT−CALL [5]: 1
IC50 [6]: 4.6 µM

O=C(c1ccc(F)cc1)C1CCN(CCn2c(=O)[nH]c3ccccc3c2=O)CC1 [Ketanserin]
HIT−CALL [1]: 0
MAX_MEAN [1]: 1.82 Percent Activity
MAX_MED [1]: 2.05 Percent Activity
MAX_MEAN [2]: 1.16 Percent Activity
MAX_MED [2]: 1.15 Percent Activity
Development Toxicant Classification [3]: Negative
Classification [3]: Non-Teratogen
DT Class. [3]: Neg
CC50 at 48 h (in vitro): 57.5 µM
Emax (RUES2-GLR cells): 68.7%
Cell Count ACC (RUES2-GLR cells; human, 48 h): 33.5346 µM
hPST TC50 (H9 human ESC line; [7]): >200 µM
hPST TC50 (H9 human ESC line; hPST cytotoxicity): > 200 µM
Emax [4, 8]: 5.18%
Emax [4, 9]: 5.62%
HIT−CALL [4]: 0
hit call designation (in words) [5]: false positive
AC50 [5, 10]: 36.6 µM
Emax [5, 11]: 33.3%
Emax [5, 12]: 36.9%
Emax [5, 13]: 33.3%
AC50 [5, 15]: 36.3 µM
Emax [5, 16]: 31.8%
Hit Call [5]: Positive
DevTox ACC ([5]; 48 h exposure): 39.2719 µM
HIT−CALL [5]: 1
IC50 [6]: > 200 µM

Oc1cc(O)c2c(c1)O[C@H](c1ccc(O)c(O)c1)[C@@H](O)C2 [Cianidanol]
HIT−CALL [1]: 0
MAX_MEAN [1]: 1.32 Percent Activity
MAX_MED [1]: 1.37 Percent Activity
MAX_MEAN [2]: 0.447 Percent Activity
MAX_MED [2]: 0.456 Percent Activity
Development Toxicant Classification [3]: Negative
DT Class. [3]: Neg
CC50 at 48 h (in vitro; [14]): 194 µM
Emax (RUES2-GLR cells): 29.6%
Cell Count ACC (RUES2-GLR cells; human, 48 h): 180.189 µM
hPST TC50 (H9 human ESC line; [7]): 200 µM
hPST TC50 (H9 human ESC line; hPST cytotoxicity): 200 µM
Emax [4, 8]: 6.18%
Emax [4, 9]: 7.45%
HIT−CALL [4]: 0
SOX17 ACC relative to cytotoxic concentration (in words) [5]: below cytotoxic concentrations
hit call designation (in words) [5]: false positive
AC50 [5, 10]: 93 µM
Emax [5, 11]: 39.8%
Emax [5, 12]: 39.3%
Emax [5, 13]: 39.8%
AC50 [5, 15]: 93.3 µM
Emax [5, 16]: 39.4%
Hit Call [5]: Positive
DevTox ACC ([5]; 48 h exposure): 93.5186 µM
AC50 [5, 17]: 92.9 µM
HIT−CALL [5]: 1
IC50 [6]: 97 µM

From paper PMC9321663, “The DevTox Germ Layer Reporter Platform: An Assay Adaptation of the Human Pluripotent Stem Cell Test” (Toxics, 2022)
